The source of these data is US20210403415A1, “COMPOUNDS AND METHODS TO ATTENUATE TUMOR PROGRESSION AND METASTASIS” (THE TRUSTEES OF INDIANA UNIVERSITY, priority 2018, published 2021).

For assay [1], the system named is TEAD4 transcriptional activity. Kind of assay: TEAD4 luciferase reporter assay (CTGF promoter) in HEK-293 cells. Format: cell-based. On the procedure:
HEK-293 cells plated at 2.4×10^4 cells/well in a 96-well microplate were transfected after 24 hours with the a pGL3.1 reporter containing the CTGF promoter and a plasmid encoding TK-Renilla luciferase in combination with control vectors or vectors that express Yap1 and TEAD4. […] Luciferase activity was measured according to the Dual-Glo luciferase assay (Promega) instructions using a Biotek Synergy Neo2 plate reader. Relative luciferase activity represents the ratio of firefly/renilla luminescence values.
(In general: In a reporter assay the amount or activity of a reporter protein is the signal.)

Assay [2] deals with TEAD4 transcriptional activity. The experiment in a line: TEAD4 luciferase reporter in GBM43 cells. Format: cell-based, human. On the procedure:
FIG. 8A illustrates relative percent viability of spheroids of patient-derived GBM43 glioblastoma cell lines were grown and treated with compound 1, compound 2, and compound 5; mean±s.d.; n=3 biological replicates. FIG. 8B illustrates the measured activity of the TEAD4 luciferase reporter in GBM43 cells treated with either vehicle or compound 2. CNYT corresponds to no transfection; mean±s.d.; n=3 biological replicates. FIG. 8C illustrates qRT-PCR analysis of CTGF levels following treatment of HEK-293T cells with compounds; mean±s.d.; n=3 biological replicates. FIG. 8D illustrates relative percent viability of spheroids of patient-derived GBM43 glioblastoma cell lines were grown and treated with temozolomide; mean±s.d. of biological replicates (n=3). P values were calculated using two-tailed t-tests. *P<0.05, **P<0.005, ***P<0.0005.

For assay [3], the target named is T1, TEAD4 binding to full-length Yap1 (Homo sapiens, UniProt Q15561).
T1 construct: TEAD4 (217-434), TEAD4 (217-434) Cys367Ser mutant and Yap1 (Full-length) were expressed as GST-fusion proteins; GST (N); made in house; host or cells: E. coli BL-21 (DE3), pGEX-6P-1
The experiment in a line: Biolayer interferometry, TEAD4 binding to captured full-length GST-Yap1. Conditions: 100 nM TEAD4 pre-incubated 24 or 48 h at 4° C. On the procedure: Biolayer interferometry was measured on OctetRed 384 (ForteBio, Menlo Park, Calif.) using PBS with 0.025% v/v Tween-20 at 30° C. with constant shaking at 1000 rpm. Streptavidin-conjugated sensors (ForteBio, Menlo Park, Calif.) were loaded with 30 μg/ml biotin-labeled GST-Yap or biocytin and were introduced to 1-1000 nM TEAD4. The sensors were regenerated with 5 mM HCl solution after each interaction. For compound inhibition study, 100 nM TEAD4 was pre-incubated with […] compound 2 in 2% v/v DMSO for 24 h at 4° C. before interaction with captured GST-Yap.
On the technique in general: BLI is a label-free optical method that tracks binding on a fibre tip over time.

Entries after “also recorded” stand apart in the source; their conditions may differ.

T1 sequence (Q15561 217-434): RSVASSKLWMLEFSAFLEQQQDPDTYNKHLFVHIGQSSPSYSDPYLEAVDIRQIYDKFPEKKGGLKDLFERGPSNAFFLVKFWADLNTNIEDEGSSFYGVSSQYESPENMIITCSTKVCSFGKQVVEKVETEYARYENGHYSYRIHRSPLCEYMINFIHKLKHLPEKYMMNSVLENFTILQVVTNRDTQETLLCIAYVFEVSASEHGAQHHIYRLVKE

Regarding `O=C(CCl)c1ccccc1Nc1cccc(C(F)(F)F)c1` [Compound 2, 2-chloro-1-(2-((3-(trifluoromethyl)phenyl)amino)phenyl)ethanone], the “reduction in reporter activity” value in assay [1] (5 μM, 48 h) is “over 70%”. Moreover, the “reporter activity” value in assay [1] (10 μM, 48 h) is “complete loss of reporter activity”. Besides, in assay [1] (24 h), the “TEAD transcriptional activity” value is recorded as “Less activity is observed at 24 h; also recorded: inhibits TEAD transcriptional activity in a concentration-dependent manner”. Besides, the “TEAD4 transcriptional activity in GBM43 cells” value in assay [2] is listed as “inhibited TEAD4 transcriptional activity”. For the same compound, the “inhibition of TEAD4 binding to full-length Yap1” value in assay [3] is “dose- and time-dependent inhibition”.
